Test results taken from patent US9611256B2, “Alkyne-, azide- and triazole-containing flavonoids as modulators for multidrug resistance in cancers” (The Hong Kong Polytechnic University, priority 2012, dated 2017).

Key:
[1] = test system: P-gp, MRP1 and BCRP transporters; experiment: Selectivity for ABC transporters, determined from % of reversion (Tables 1 and 2); type: cell-based, human; conditions: determined from % of reversion in Table 1 (>80% strongly, 79-50% moderately selective)
From the text: Generally, the triazole dimers library can be divided into mono-selective, dual-selective and multi-selective ABC transporter modulators. Table 2 summarizes the selectivity of different active triazole dimers and some monomeric azides for the ABC transporters. […] From the study, it seems that the simple monomeric azides could be a highly BCRP-selective inhibitor. […] It is possible that differently selective (mono-, dual- and multi-) inhibitors of drug transporters could be potentially useful tools for investigation of complicated drug-resistance phenotypes and eventually, for treatment of drug-resistant cancers caused by overexpression of ABC transporters.
The selectivity of active triazole compounds for various ABC transporters was determined from the Table 1. It would be considered as strongly selective if it causes >80% of reversion. It would be considered as moderately selective if it results in 79-50% of reversion. Overall, the active triazole compounds can be divided into mono-, dual- and multi-selective for P-gp, MRP1 and BCRP transporters.

MRP1 [2] = target: T1, MRP1 (Homo sapiens, UniProt P33527); experiment: Reversal of MRP1-mediated vincristine resistance in 2008/MRP1 cells (cell proliferation assay); conditions: (IC50 towards L929 or Raw264.7)/(EC50 for reversing drug resistance)
T1 sequence (P33527 whole entry): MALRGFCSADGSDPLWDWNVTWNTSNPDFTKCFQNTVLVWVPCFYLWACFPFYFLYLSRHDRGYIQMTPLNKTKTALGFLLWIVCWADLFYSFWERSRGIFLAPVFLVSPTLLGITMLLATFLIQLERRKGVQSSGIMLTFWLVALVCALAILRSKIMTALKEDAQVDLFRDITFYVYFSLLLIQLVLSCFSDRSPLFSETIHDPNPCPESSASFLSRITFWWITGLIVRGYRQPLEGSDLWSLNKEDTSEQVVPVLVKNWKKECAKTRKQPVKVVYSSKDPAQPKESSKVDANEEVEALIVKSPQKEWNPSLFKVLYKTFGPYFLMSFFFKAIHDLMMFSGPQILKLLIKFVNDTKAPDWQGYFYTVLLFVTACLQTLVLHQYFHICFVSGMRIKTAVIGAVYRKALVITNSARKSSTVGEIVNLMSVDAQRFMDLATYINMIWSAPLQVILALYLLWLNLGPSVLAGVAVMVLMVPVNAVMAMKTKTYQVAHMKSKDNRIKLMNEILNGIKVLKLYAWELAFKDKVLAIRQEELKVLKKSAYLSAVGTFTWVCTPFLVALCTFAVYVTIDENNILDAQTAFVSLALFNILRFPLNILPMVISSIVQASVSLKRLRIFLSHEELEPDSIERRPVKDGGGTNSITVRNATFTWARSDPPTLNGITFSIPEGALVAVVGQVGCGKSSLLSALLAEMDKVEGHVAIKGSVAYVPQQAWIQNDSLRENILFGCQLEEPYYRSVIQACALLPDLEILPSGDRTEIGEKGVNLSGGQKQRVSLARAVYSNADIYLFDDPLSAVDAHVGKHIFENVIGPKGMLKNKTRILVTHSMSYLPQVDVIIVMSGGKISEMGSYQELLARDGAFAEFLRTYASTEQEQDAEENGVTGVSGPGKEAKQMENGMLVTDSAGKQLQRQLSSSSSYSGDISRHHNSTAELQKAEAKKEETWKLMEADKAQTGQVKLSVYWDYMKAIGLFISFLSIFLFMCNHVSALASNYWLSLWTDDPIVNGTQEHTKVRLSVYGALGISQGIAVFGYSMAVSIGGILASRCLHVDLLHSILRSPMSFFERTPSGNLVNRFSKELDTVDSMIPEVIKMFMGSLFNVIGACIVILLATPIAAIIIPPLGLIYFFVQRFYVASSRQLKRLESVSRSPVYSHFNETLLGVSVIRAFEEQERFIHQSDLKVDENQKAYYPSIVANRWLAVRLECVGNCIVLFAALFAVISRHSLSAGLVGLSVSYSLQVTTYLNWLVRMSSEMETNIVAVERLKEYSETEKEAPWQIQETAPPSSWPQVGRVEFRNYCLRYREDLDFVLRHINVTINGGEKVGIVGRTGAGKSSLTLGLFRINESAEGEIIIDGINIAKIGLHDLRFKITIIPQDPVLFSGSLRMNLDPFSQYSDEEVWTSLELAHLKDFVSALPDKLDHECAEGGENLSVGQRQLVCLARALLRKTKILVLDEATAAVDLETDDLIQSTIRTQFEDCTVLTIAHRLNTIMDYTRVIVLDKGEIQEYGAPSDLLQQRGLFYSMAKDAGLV

in vitro = conditions: mouse
MRP1 [3] = target: T1, MRP1; experiment: Reversal of MRP1-mediated DOX resistance in 2008/MRP1 cells (cell proliferation assay); conditions: for DOX resistance of 2008/MRP1 Therapeutic index: (IC50 towards L929 or Raw264.7)/(EC50 for reversing drug resistance)
MRP1 [4] = target: T1, MRP1; experiment: cell-based
BCRP [5] = target: T2, BCRP (Homo sapiens, UniProt Q9UNQ0); experiment: cell-based
T2 sequence (Q9UNQ0 1-655): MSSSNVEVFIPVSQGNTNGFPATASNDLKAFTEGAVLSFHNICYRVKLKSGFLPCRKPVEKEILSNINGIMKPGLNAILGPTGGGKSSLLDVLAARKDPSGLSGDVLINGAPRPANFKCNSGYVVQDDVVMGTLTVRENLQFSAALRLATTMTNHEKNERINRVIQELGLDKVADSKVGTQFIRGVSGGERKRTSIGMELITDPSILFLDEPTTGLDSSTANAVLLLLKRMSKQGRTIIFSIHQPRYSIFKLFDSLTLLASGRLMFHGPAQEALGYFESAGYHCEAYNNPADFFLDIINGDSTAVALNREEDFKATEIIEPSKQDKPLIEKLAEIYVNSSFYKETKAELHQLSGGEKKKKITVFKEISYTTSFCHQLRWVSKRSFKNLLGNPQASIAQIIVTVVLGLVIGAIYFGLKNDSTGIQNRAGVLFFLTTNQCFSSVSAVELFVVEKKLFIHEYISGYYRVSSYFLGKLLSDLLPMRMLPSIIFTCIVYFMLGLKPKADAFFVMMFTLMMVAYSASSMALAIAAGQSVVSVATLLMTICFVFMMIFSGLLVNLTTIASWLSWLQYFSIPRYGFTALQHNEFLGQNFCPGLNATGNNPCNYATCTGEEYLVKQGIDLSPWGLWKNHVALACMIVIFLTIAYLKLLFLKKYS

BCRP [6] = target: T2, BCRP; experiment: Reversal of BCRP-mediated topotecan resistance in MCF7-MX100 cells (cell proliferation assay); conditions: for Topotecan resistance of MCF7-MX100 Therapeutic index: (IC50 towards L929 or Raw264.7)/(EC50 for reversing drug resistance); for % of reversion of sensitivity of MCF7-MX100 towards topotecan: triazole dimers at 1.0 μM

| SMILES | Selectivity for ABC transporters (P-gp, MRP1, BCRP) [1] | Vincristine resistance of 2008/MRP1 Therapeutic index (MRP1 [2]) | IC50 at 5 days (in vitro) | DOX resistance of 2008/MRP1 Therapeutic index (MRP1 [3]) | EC50 (MRP1 [4]) | EC50 (BCRP [5]) | Topotecan resistance of MCF7-MX100 Therapeutic index (BCRP [6]) | % of reversion of sensitivity of MCF7-MX100 towards topotecan (BCRP [6]) | % of reversion of sensitivity of 2008/MRP1 towards DOX (MRP1 [3]; triazole dimers at 1.0 μM) |
| --- | --- | --- | --- | --- | --- | --- | --- | --- | --- |
| O=c1cc(-c2ccc(OCCOCCOCCn3cc(CCCCOc4ccc5c(=O)cc(-c6ccccc6)oc5c4)nn3)cc2)oc2ccccc12 [Ac12Az2, 7-(4-(1-(2-(2-(2-(4-(4-Oxo-4H-chromen-2-yl)phenoxy)ethoxy)ethoxy)ethyl)-1H-1,2,3-triazol-4-yl)butoxy)-2-phenyl-4H-chromen-4-one] | MRP1- and BCRP-dual selectivity | >377.9 | > 50 µM | >298.5 | – | – | – | – | – |
| O=c1cc(-c2ccccc2)oc2cc(OCCCCc3cn(CCOCCOCCOc4ccc(-c5cc(=O)c6cc(F)ccc6o5)cc4)nn3)ccc12 [Ac12Az4, 6-Fluoro-2-(4-(2-(2-(2-(4-(4-((4-oxo-2-phenyl-4H-chromen-7-yl)oxy)butyl)-1H-1,2,3-triazol-1-yl)ethoxy)ethoxy)ethoxy)phenyl)-4H-chromen-4-one] | MRP1- and BCRP-dual selectivity | >736.9 | > 100 µM | >525.5 | – | – | – | – | – |
| O=c1cc(-c2ccccc2)oc2cc(OCCN(Cc3ccccc3)Cc3cn(CCOCCOc4ccc(-c5cc(=O)c6cc(F)ccc6o5)cc4)nn3)ccc12 [Ac16Az7, 7-(2-(Benzyl((1-(2-(2-(4-(6-fluoro-4-oxo-4H-chromen-2-yl)phenoxy)ethoxy)ethyl)-1H-1,2,3-triazol-4-yl)methyl)amino)ethoxy)-2-phenyl-4H-chromen-4-one] | – | – | > 100 µM | – | 0.123 ± 0.013 µM | – | – | – | – |
| Cc1ccc2oc(-c3ccc(OCCCCc4cn(CCOCCOc5ccc(-c6cc(=O)c7ccccc7o6)cc5)nn4)cc3)cc(=O)c2c1 [Ac5Az1, 6-Methyl-2-(4-(4-(1-(2-(2-(4-(4-oxo-4H-chromen-2-yl)phenoxy)ethoxy)ethyl)-1H-1,2,3-triazol-4-yl)butoxy)phenyl)-4H-chromen-4-one] | – | – | > 57 µM | – | 0.25 µM | – | – | – | – |
| COC(=O)c1cccc(COc2c(-c3ccc(OCCOCCn4cc(CCCCOc5ccc6c(=O)cc(-c7ccccc7)oc6c5)nn4)cc3)oc3ccccc3c2=O)c1 [Ac12Az8, Methyl 3-(((4-oxo-2-(4-(2-(2-(4-(4-((4-oxo-2-phenyl-4H-chromen-7-yl)oxy)butyl)-1H-1,2,3-triazol-1-yl)ethoxy)ethoxy)phenyl)-4H-chromen-3-yl)oxy)methyl)benzoate] | multi-selectivity towards P-gp, MRP1 and BCRP transporters | – | > 100 µM | – | – | ≤ 0.01 µM | >17857.1 | about 80.0% | – |
| COC(=O)c1cccc(COc2c(-c3ccc(OCCOCCOCCn4cc(CCCCOc5ccc(-c6cc(=O)c7cc(C)ccc7o6)cc5)nn4)cc3)oc3ccccc3c2=O)c1 [Ac5Az9, Methyl 3-(((2-(4-(2-(2-(2-(4-(4-(4-(6-methyl-4-oxo-4H-chromen-2-yl)phenoxy)butyl)-1H-1,2,3-triazol-1-yl)ethoxy)ethoxy)ethoxy)phenyl)-4-oxo-4H-chromen-3-yl)oxy)methyl)benzoate] | multi-selectivity towards P-gp, MRP1 and BCRP transporters | – | > 100 µM | – | – | ≤ 0.01 µM | >111111.1 | about 64.0% | – |
| O=c1cc(-c2ccc(OCCOCCn3cc(CCCOc4ccc5c(=O)cc(-c6ccccc6)oc5c4)nn3)cc2)oc2ccccc12 [Ac2Az1, 7-(3-(1-(2-(2-(4-(4-Oxo-4H-chromen-2-yl)phenoxy)ethoxy)ethyl)-1H-1,2,3-triazol-4-yl)propoxy)-2-phenyl-4H-chromen-4-one] | – | – | > 100 µM | – | 0.145 ± 0.025 µM | – | – | – | – |
| COC(=O)c1cccc(COc2c(-c3ccc(OCCOCCn4cc(CCCCOc5ccc(-c6cc(=O)c7cc(C)ccc7o6)cc5)nn4)cc3)oc3ccccc3c2=O)c1 [Ac5Az8, Methyl 3-(((2-(4-(2-(2-(4-(4-(4-(6-methyl-4-oxo-4H-chromen-2-yl)phenoxy)butyl)-1H-1,2,3-triazol-1-yl)ethoxy)ethoxy)phenyl)-4-oxo-4H-chromen-3-yl)oxy)methyl)benzoate] | Pgp- and BCRP-dual selectivity | – | > 100 µM | – | – | ≤ 0.01 µM | >25000.0 | about 64.0% | – |
| O=c1cc(-c2ccc(OCCCc3cn(CCOCCOc4ccc(-c5cc(=O)c6ccccc6o5)cc4)nn3)cc2)oc2ccccc12 [Ac1Az1, 2-(4-(3-(1-(2-(2-(4-(4-Oxo-4H-chromen-2-yl)phenoxy)ethoxy)ethyl)-1H-1,2,3-triazol-4-yl)propoxy)phenyl)-4H-chromen-4-one] | – | – | 60.2 ± 16.3 µM | – | 0.128 ± 0.0325 µM | – | – | – | – |
| COC(=O)c1cccc(COc2c(-c3ccc(OCCOCCOCCn4cc(CCCCOc5ccc6c(=O)cc(-c7ccccc7)oc6c5)nn4)cc3)oc3ccccc3c2=O)c1 [Ac12Az9, Methyl 3-(((4-oxo-2-(4-(2-(2-(2-(4-(4-((4-oxo-2-phenyl-4H-chromen-7-yl)oxy)butyl)-1H-1,2,3-triazol-1-yl)ethoxy)ethoxy)ethoxy)phenyl)-4H-chromen-3-yl)oxy)methyl)benzoate] | multi-selectivity towards P-gp, MRP1 and BCRP transporters | – | > 100 µM | – | – | ≤ 0.01 µM | >71428.6 | about 80.0% | – |
| COC(=O)c1cccc(COc2c(-c3ccc(OCCOCCOCCn4cc(COCCOc5ccc6c(=O)cc(-c7ccccc7)oc6c5)nn4)cc3)oc3ccccc3c2=O)c1 [Ac13Az9] | Pgp- and BCRP-dual selectivity | – | > 100 µM | – | – | ≤ 0.01 µM | >50000.0 | about 80.0% | – |
| COC(=O)c1cccc(COc2c(-c3ccc(OCCOCCn4cc(COCCOc5ccc6c(=O)cc(-c7ccccc7)oc6c5)nn4)cc3)oc3ccccc3c2=O)c1 [Ac13Az8, Methyl 3-(((4-oxo-2-(4-(2-(2-(4-((2-((4-oxo-2-phenyl-4H-chromen-7-yl)oxy)ethoxy)methyl)-1H-1,2,3-triazol-1-yl)ethoxy)ethoxy)phenyl)-4H-chromen-3-yl)oxy)methyl)benzoate] | MRP1- and BCRP-dual selectivity | – | > 100 µM | – | – | ≤ 0.01 µM | >16666.7 | about 80.0% | about 55.9% |
| O=c1cc(-c2ccccc2)oc2cc(OCCN(Cc3ccccc3)Cc3cn(CCOc4ccc5c(=O)cc(-c6ccccc6)oc5c4)nn3)ccc12 [Ac16Az13, 7-(2-(Benzyl((1-(2-((4-oxo-2-phenyl-4H-chromen-7-yl)oxy)ethyl)-1H-1,2,3-triazol-4-yl)methyl)amino)ethoxy)-2-phenyl-4H-chromen-4-one] | – | – | > 100 µM | >169.5 | 0.59 µM | – | – | – | – |
